According to US8153679B2, “Radiolabelled inhibitors of the glycine 1 transporter” (Hoffmann-La Roche Inc., priority 2008, dated 2012):

What was measured:
[1] = test system: glycine transporter 1 (GlyT1); test: In vivo PET imaging in the baboon; set-up: species or system baboon (papio anubis); settings: intravenous 1 minute bolus, PET 0 to 90 minutes
Description: 1) PET imaging with [^11C-][2-Isopropoxy-5-methanesulfonyl-phenyl)-[5-(tetrahydro-pyran-4-yl)-1,3-dihydro-isoindol-2-yl]-methanone] and [^11C]-5-Methanesulfonyl-2-((S)-2,2,2-trifluoro-1-methyl-ethoxy)-phenyl]-[5-(tetrahydro-pyran-4-yl)-1,3-dihydro-isoindol-2-yl]-methanone
(§1) The experiments described below were carried out in male baboons (papio anubis). Animals were fasted for 12 hours prior to the PET study. Baboons were initially sedated intramuscularly with Ketamine hydrochloride with restraint dosages of 5-7 mg/kg to achieve a light plane of anesthesia and then maintained on continuous Propofol intravenous infusion @ […] (DIPRIVAN® Injectable Emulsion). Circulatory volume was maintained by infusion of isotonic saline. A femoral arterial catheter was inserted for blood sampling. Physiological vital signs including heart rate, ECG, blood pressure (Spacelabs Monitor, Issaquah, Wash., USA) and oxygen saturation (Nellcor OxiMax® N-600™ Pulse Oximeter, Pleasanton, Calif., USA) were continuously monitored throughout the study. The animal was positioned in an ECAT HRRT® brain PET scanner (High Resolution Research Tomograph, CPS Innovations, Inc., Knoxville, Tenn.). The head of the animal was fitted with a thermoplastic mask that was attached to a head holder for reproducible fixation. […]

GlyT1 transporter [2] = molecular target: T1, GlyT1 transporter (Rattus norvegicus, UniProt P28572); test: Autoradiographic studies in rat brain sections; type: binding; settings: for distribution of the binding sites in rat brain sections: radiotracer 1 nM, 60 min, 37° C., high densities in thalamus, brainstem, pons, medulla oblungata, cerebellum, lower in striatum, cortex, hippocampus
T1 construct: Ten μm-thick sagittal sections were cut in a Cryostat and thaw-mounted on adhesion glass slides; from tissue; host or cells: rat brain, sagittal sections (male Wistar rats)
T1 sequence (P28572 1-638): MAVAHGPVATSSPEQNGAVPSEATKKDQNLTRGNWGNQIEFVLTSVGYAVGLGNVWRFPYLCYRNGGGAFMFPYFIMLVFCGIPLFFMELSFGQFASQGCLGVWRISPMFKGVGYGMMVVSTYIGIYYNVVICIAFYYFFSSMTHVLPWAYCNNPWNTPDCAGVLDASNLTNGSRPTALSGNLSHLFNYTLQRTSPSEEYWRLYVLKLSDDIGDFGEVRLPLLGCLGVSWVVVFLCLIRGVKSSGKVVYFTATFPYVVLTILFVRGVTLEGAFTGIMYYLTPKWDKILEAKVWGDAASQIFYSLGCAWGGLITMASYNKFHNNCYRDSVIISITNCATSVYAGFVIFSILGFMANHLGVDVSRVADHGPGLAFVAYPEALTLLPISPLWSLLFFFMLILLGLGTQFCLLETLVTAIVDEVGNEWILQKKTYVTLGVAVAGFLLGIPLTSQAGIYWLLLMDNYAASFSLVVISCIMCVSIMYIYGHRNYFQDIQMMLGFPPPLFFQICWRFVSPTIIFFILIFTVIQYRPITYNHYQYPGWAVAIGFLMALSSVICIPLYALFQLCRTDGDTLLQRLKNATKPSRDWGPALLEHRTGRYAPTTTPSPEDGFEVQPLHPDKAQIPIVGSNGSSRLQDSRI
Source text: Autoradiographic Studies in Rat Brain
The distribution of the binding sites of [^3H][5-Methanesulfonyl-2-((S)-2,2,2-trifluoro-1-methyl-ethoxy)-phenyl]-[5-(tetrahydro-pyran-4-yl)-1,3-dihydro-isoindol-2-yl]-methanone and [^3H][2-Isopropoxy-5-methanesulfonyl-phenyl)-[5-(tetrahydro-pyran-4-yl)-1,3-dihydro-isoindol-2-yl]-methanone] was investigated in the rat brain.
Male Wistar rats were used for these experiments. Rats were sacrificed; their brains were rapidly removed, frozen in dry ice powder. Ten μm-thick sagittal sections were cut in a Cryostat and thaw-mounted on adhesion glass slides. Brain sections were first incubated for 10 min. in Ringer buffer (NaCl 120 mM, KCl 5 mM, CaCl2 2 mM, MgCl2 1 mM, Tris-HCl 50 mM pH 7.4) at 37° C. and then for 60 min. in Ringer buffer at 37° C. containing either [^3H]5-Methanesulfonyl-2-((S)-2,2,2-trifluoro-1-methyl-ethoxy)-phenyl]-[5-(tetrahydro-pyran-4-yl)-1,3-dihydro-isoindol-2-yl-methanone or [^3H]-[2-Isopropoxy-5-methanesulfonyl-phenyl)-[5-(tetrahydro-pyran-4-yl)-1,3-dihydro-isoindol-2-yl]-methanone] at concentration 1 nM. For the evaluation of the non-specific-binding (NSB) of the radiotracer an additional group of sections was incubated with Ringer buffer containing the radiotracer and the reference GlyT1 inhibitor Org 24598 at the concentration 10 μM (60 in at 37° C.). At the end of the incubation, sections were rinsed 2×5 min. and 1×15 min. in ice-cold (4° C.) Ringer buffer and then rapidly dipped three times in distilled water at 4° C. Slide-mounted brain sections were dried under a flow of cold air and exposed together with [^3H]-microscale to a Fuji Imaging plate for 5 days. […] The total amount of radiotracer bound to the brain areas of interest (TB) were measured using the MCID image analysis program and expressed as fmol of bound radiotracer/mg of protein. The amount of [^3H]5-Methanesulfonyl-2-((S)-2,2,2-trifluoro-1-methyl-ethoxy)-phenyl]-[5-(tetrahydro-pyran-4-yl)-1,3-dihydro-isoindol-2-yl]-methanone specifically bound to the GlyT1 carrier (SB) was calculated according to the formula: SB=TB−NSB.

GlyT1 transporter [3] = molecular target: T2, GlyT1 transporter (Mus musculus, UniProt P28571); test: GlyT1 transporter inhibition in vitro (test method of WO2006/082001); type: cell-based; settings: unlabelled compounds
T2 sequence (P28571 1-651 isoform P28571-2): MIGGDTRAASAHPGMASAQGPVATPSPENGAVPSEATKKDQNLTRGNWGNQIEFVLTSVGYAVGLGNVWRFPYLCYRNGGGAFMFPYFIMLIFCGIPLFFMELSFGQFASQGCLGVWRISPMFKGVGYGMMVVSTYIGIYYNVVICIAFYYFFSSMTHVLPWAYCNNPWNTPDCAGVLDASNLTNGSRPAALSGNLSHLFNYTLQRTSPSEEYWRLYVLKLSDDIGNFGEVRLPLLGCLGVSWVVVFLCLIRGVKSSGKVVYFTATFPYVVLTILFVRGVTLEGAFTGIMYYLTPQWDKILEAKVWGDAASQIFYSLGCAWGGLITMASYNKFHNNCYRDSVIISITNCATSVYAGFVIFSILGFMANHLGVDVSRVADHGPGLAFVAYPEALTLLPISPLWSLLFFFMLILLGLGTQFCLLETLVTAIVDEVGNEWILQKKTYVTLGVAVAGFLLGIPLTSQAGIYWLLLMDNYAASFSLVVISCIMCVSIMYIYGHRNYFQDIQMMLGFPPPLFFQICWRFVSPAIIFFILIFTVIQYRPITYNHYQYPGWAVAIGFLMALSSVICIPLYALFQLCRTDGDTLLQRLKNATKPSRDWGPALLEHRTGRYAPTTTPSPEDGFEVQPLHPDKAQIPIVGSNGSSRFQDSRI
Source text: The test method is described in WO2006/082001.

GlyT1 transporter [4] = test: PET imaging with pharmacological challenges (blocking of radiotracer uptake); type: in vivo, baboon (papio anubis); settings: intravenous infusion 0.2 mg/kg, after 10 min 0.5 mg/kg for remainder 100 min; started 20 min before radiotracer
Description: as §1, with “fixation. A 6 min transmission scan with a 1 mCi Cs-137 point source was initially done for attenuation correction.” for “fixation.”

[5] = Preliminary pharmacokinetic experiments and modeling (blocker infusion); type: in vivo, baboon; settings: intravenous infusion 0.2 mg/kg then 0.5 mg/kg
Description: Each animal received two sequential administrations of the radiotracer on the same day. The first administration of radiotracer was used to determine radiotracer baseline uptake. Following the baseline scan, the baboon received an intravenous administration of unlabeled [5-methanesulfonyl-2-((S)-2,2,2-trifluoro-1-methyl-ethoxy)-phenyl]-[5-(tetrahydro-pyran-4-yl)-1,3-dihydro-isoindol-2-yl]-methanone (blocker). The blocker infusion started 20 min before (the second) radiotracer injection. The blocker was first infused at dose=0.2 mg/kg. After 10 min, the flow rate was changed to deliver 0.5 mg/kg for the remainder 100 min of the study.

C[C@H](Oc1ccc(S([11CH3])(=O)=O)cc1C(=O)N1Cc2ccc(C3CCOCC3)cc2C1)C(F)(F)F [Example 2, [^11C-methyl]-[5-Methanesulfonyl-2-((S)-2,2,2-trifluoro-1-methyl-ethoxy)-phenyl]-[5-(tetrahydro-pyran-4-yl)-1,3-dihydro-isoindol-2-yl]-methanone]
brain uptake of radiotracer [1]: rapidly taken up in multiple brain areas

[^3H-methyl]-(2-Isopropoxy-5-methanesulfonyl-phenyl)-[5-(tetrahydro-pyran-4-yl)-1,3-dihydro-isoindol-2-yl]-methanone [Example 3]
distribution of the binding sites in rat brain sections (GlyT1 transporter [2]): corresponded to the known distribution of the GlyT1 transporter

CC(C)Oc1ccc(S([11CH3])(=O)=O)cc1C(=O)N1Cc2ccc(C3CCOCC3)cc2C1 [Example 4, [^11C-methyl]-(2-Isopropoxy-5-methanesulfonyl-phenyl)-[5-(tetrahydro-pyran-4-yl)-1,3-dihydro-isoindol-2-yl]-methanone]
brain uptake of radiotracer [1]: rapidly taken up in multiple brain areas

[3H-methyl]-[5-Methanesulfonyl-2-((S)-2,2,2-trifluoro-1-methyl-ethoxy)-phenyl]-[5-(tetrahydro-pyran-4-yl)-1,3-dihydro-isoindol-2-yl]-methanone [Example 1]
distribution of the binding sites in rat brain sections (GlyT1 transporter [2]): corresponded to the known distribution of the GlyT1 transporter

CN(CC[C@@H](Oc1ccc(C(F)(F)F)cc1)c1ccccc1)CC(=O)O [Org 24598]
effect of co-incubation on binding of both [3H] radiotracers to rat brain sections (GlyT1 transporter [2]; high concentrations of inhibitor (Org 24598 10 μM), radiotracers 1 nM): completely abolished binding

C[C@H](Oc1ccc(S(C)(=O)=O)cc1C(=O)N1Cc2ccc(C3CCOCC3)cc2C1)C(F)(F)F [[5-methanesulfonyl-2-((S)-2,2,2-trifluoro-1-methyl-ethoxy)-phenyl]-[5-(tetrahydro-pyran-4-yl)-1,3-dihydro-isoindol-2-yl]-methanone]
IC50 (GlyT1 transporter [3]): 28 nM | effect of pretreatment with cold blocker on specific uptake of both [11C] radiotracers in brain (GlyT1 transporter [4]): completely blocked the specific uptake | plasma levels during the PET scan time interval [5]: constant plasma levels

CC(C)Oc1ccc(S(C)(=O)=O)cc1C(=O)N1Cc2ccc(C3CCOCC3)cc2C1 [(2-isopropoxy-5-methanesulfonyl-phenyl)-[5-(tetrahydro-pyran-4-yl)-1,3-dihydro-isoindol-2-yl]-methanone]
IC50 (GlyT1 transporter [3]): 14 nM
